Literature values as cited in patent publication US4259319A, “Antibiotic auromomycin, and process for production thereof” (Kanegafuchi Chemical Industry Company, Limited, priority 1977, dated 1981).

What was measured:
Gram-positive bacteria = conditions: comparison substance
[1] = comparison substance

neocarcinostatin
Antibacterial activity (Gram-positive bacteria): inhibiting only Grampositive bacteria | isoelectric point [1]: 3.5 pH
